Results from patent US20210355121A1, “FUSED TRICYCLIC KRAS INHIBITORS” (Incyte Corporation, priority 2020, published 2021).

How the values were obtained:
KRAS G12V = KRAS G12V (Homo sapiens, UniProt P01116, G12V); test: KRAS G12V GDP-GTP exchange assay (bodipy-GDP for GppNHp, with SOS1); format: biochemical; conditions: 2.5 nM bodipy loaded KRAS G12V, 3 hours after GppNHp-SOS1; read-out: G12V_exchange (KRAS_G12V exchange assay IC50)
Procedure: (§1) The inhibitor potency of the exemplified compounds was determined in a fluorescence based guanine nucleotide exchange assay, which measures the exchange of bodipy-GDP (fluorescently labeled GDP) for GppNHp (Non-hydrolyzable GTP analog) to generate the active state of KRAS in the presence of SOS1 (guanine nucleotide exchange factor). Inhibitors were serially diluted in DMSO and a volume of 0.1 μL was transferred to the wells of a black low volume 384-well plate. 5 μL/well volume of bodipy-loaded KRAS G12C diluted to 5 nM in assay buffer (25 mM Hepes pH 7.5, 50 mM NaCl, 10 mM MgCl2 and 0.01% Brij-35) was added to the plate and pre-incubated with inhibitor for 2 hours at ambient temperature. Appropriate controls (enzyme with no inhibitor or with a G12C inhibitor (AMG-510)) were included on the plate. The exchange was initiated by the addition of a 5 μL/well volume containing 1 mM GppNHp and 300 nM SOS1 in assay buffer. The 10 μL/well reaction concentration of the bodipy-loaded KRAS G12C, GppNHp, and SOS1 were 2.5 nM, 500 uM, and 150 nM, respectively. The reaction plates were incubated at ambient temperature for 2 hours, a time estimated for complete GDP-GTP exchange in the absence of inhibitor. For the KRAS G12D and G12V mutants, similar guanine nucleotide exchange assays were used with 2.5 nM as final concentration for the bodipy loaded KRAS proteins and with 4 hours and 3 hours incubation after adding GppNHp-SOS1 mixture for G12D and G12V respectively. A cyclic peptide described to selectively bind G12D mutant (Sakamoto et al., BBRC 484.3 (2017), 605-611) or internal compounds with confirmed binding were used as positive controls in the assay plates. Fluorescence intensities were measured on a PheraStar plate reader instrument (BMG Labtech) with excitation at 485 nm and emission at 520 nm.
(§2) Either GraphPad prism or XLfit was used to analyze the data. The IC50 values were derived by fitting the data to a four parameter logistic equation producing a sigmoidal dose-response curve with a variable Hill coefficient. Prism equation: Y=Bottom+(Top−Bottom)/(1+10^((Log IC50−X)*Hill slope)); XLfit equation: Y=(A+((B−A)/(1+((X/C)^D)))) where X is the logarithm of inhibitor concentration and Y is the response.

KRAS G12D = KRAS G12D (Homo sapiens, UniProt P01116, G12D); test: KRAS G12D GDP-GTP exchange assay (bodipy-GDP for GppNHp, with SOS1); format: biochemical; conditions: 2.5 nM bodipy loaded KRAS G12D, 4 hours after GppNHp-SOS1; read-out: G12D_exchange (KRAS_G12D exchange assay IC50)
Chain of KRAS G12D (P01116 1-188 isoform P01116-2 G12D): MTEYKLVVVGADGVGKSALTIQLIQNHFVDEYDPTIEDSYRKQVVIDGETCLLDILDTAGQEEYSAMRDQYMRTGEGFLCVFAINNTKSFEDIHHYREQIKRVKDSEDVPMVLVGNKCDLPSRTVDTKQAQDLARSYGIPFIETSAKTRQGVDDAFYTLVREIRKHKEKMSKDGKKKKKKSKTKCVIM
Procedure: as §1, §2

KRAS G12C = KRAS G12C (Homo sapiens, UniProt P01116, G12C); test: KRAS G12C GDP-GTP exchange assay (bodipy-GDP for GppNHp, with SOS1); format: biochemical; conditions: 2.5 nM bodipy-loaded KRAS G12C, 2 hours pre-incubation with inhibitor, 2 hours after GppNHp-SOS1; read-out: G12C_exchange (KRAS_G12C exchange assay IC50)
Chain of KRAS G12C (P01116 1-188 isoform P01116-2 G12C): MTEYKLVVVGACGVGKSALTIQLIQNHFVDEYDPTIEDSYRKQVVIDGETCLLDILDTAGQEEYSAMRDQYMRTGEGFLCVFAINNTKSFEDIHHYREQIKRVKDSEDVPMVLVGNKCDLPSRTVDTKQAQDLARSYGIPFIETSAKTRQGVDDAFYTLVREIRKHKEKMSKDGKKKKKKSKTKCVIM
Method in brief: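 Fluorescence nucleotide-exchange assay: bodipy-GDP-loaded KRAS (2.5 nM final) pre-incubated with inhibitor 2 h at ambient temperature, then 500 µM GppNHp plus 150 nM SOS1 added in pH 7.5 Hepes/MgCl2 buffer. Exchange read at ex 485/em 520 nm after 2 h (G12C), 4 h (G12D) or 3 h (G12V). IC50 from four-parameter logistic fit.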

[1] = system: MIA PaCa-2 (KRAS G12C) cells; test: KRAS_G12C cellular pERK HTRF assay; format: cell-based, human; conditions: Homo sapiens, MIA PaCa-2; phospho-ERK1/2 HTRF, 4 hours incubation; read-out: G12C_pERK (KRAS_G12C pERK assay IC50)
Method in brief: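 MIA PaCa-2 (G12C) or G12D lines (A427, HPAF-II) in RPMI/10% FBS, treated with compound for 4 h (G12C) or 2 h (G12D) at 37 °C after overnight plating. Lysed, phospho-ERK1/2 detected by HTRF (665/620 nm). IC50 from percent inhibition versus log concentration.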

Chain of KRAS G12V (P01116 1-188 isoform P01116-2 G12V): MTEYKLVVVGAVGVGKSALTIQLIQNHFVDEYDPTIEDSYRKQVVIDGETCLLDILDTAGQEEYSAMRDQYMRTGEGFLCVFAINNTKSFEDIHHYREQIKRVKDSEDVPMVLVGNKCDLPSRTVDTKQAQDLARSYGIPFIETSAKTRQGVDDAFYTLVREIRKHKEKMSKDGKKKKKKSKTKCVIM

| IC50 (KRAS G12V) [µM] | IC50 (KRAS G12D) [µM] | IC50 (KRAS G12C) [µM] | IC50 [1] [µM] | Compound |
| --- | --- | --- | --- | --- |
| – | – | ≤ 0.1 | ≤ 0.1 | C=CC(=O)N1CC[C@H](n2ncc3c(N4CC(N(C)C)C4)nc4c(F)c(-c5cccc(C)c5Cl)c(Cl)cc4c32)C[C@H]1CC#N [Example 23, 2-((2S,4S)-1-acryloyl-4-(8-chloro-7-(2-chloro-3-methylphenyl)-4-(3-(dimethylamino)azetidin-1-yl)-6-fluoro-1H-pyrazolo[4,3-c]quinolin-1-yl)piperidin-2-yl)acetonitrile] |
| – | – | ≤ 0.1 | ≤ 0.1 | Cc1cccc(-c2c(Cl)cc3c(nc(N4CC(N(C)C)C4)c4cnn([C@H]5CCN(C(=O)/C=C/CN(C)C)[C@H](CC#N)C5)c43)c2F)c1Cl [Example 24, 2-((2S,4S)-4-(8-chloro-7-(2-chloro-3-methylphenyl)-4-(3-(dimethylamino)azetidin-1-yl)-6-fluoro-1H-pyrazolo[4,3-c]quinolin-1-yl)-1-((E)-4-(dimethylamino)but-2-enoyl)piperidin-2-yl)acetonitrile] |
| – | – | ≤ 0.1 | ≤ 0.1 | C=CC(=O)N1CC[C@H](n2ncc3c(N4CC(N(C)C)C4)nc4c(F)c(-c5cccc(C)c5C(F)(F)F)c(Cl)cc4c32)C[C@H]1CC#N [Example 27, 2-((2S,4S)-1-acryloyl-4-(8-chloro-4-(3-(dimethylamino)azetidin-1-yl)-6-fluoro-7-(3-methyl-2-(trifluoromethyl)phenyl)-1H-pyrazolo[4,3-c]quinolin-1-yl)piperidin-2-yl)acetonitrile] |
| – | – | ≤ 0.1 | ≤ 0.1 | CN(C)C/C=C/C(=O)N1CC[C@H](n2ncc3c(N4CC(C)(N(C)C)C4)nc4c(F)c(-c5cccc6cccc(Cl)c56)c(Cl)cc4c32)C[C@H]1CC#N [Example 63, 2-((2S,4S)-4-(8-chloro-7-(8-chloronaphthalen-1-yl)-4-(3-(dimethylamino)-3-methylazetidin-1-yl)-6-fluoro-1H-pyrazolo[4,3-c]quinolin-1-yl)-1-((E)-4-(dimethylamino)but-2-enoyl)piperidin-2-yl)acetonitrile] |
| – | – | ≤ 0.1 | ≤ 0.1 | C[C@H](Oc1nc2c(F)c(-c3cccc4cccc(Cl)c34)c(Cl)cc2c2c1cnn2[C@H]1CCN(C(=O)/C=C/CN(C)C)[C@H](CC#N)C1)[C@@H]1CCCN1C [Example 89, 2-((2S,4S)-4-(8-chloro-7-(8-chloronaphthalen-1-yl)-6-fluoro-4-((S)-1-((S)-1-methylpyrrolidin-2-yl)ethoxy)-1H-pyrazolo[4,3-c]quinolin-1-yl)-1-((E)-4-(dimethylamino)but-2-enoyl)piperidin-2-yl)acetonitrile] |

Further lines, the compound ahead of its results:

| Compound | IC50 (KRAS G12V) [µM] | IC50 (KRAS G12D) [µM] | IC50 (KRAS G12C) [µM] | IC50 [1] [µM] |
| --- | --- | --- | --- | --- |
| COC(=O)CCc1cc2c(OC[C@@H]3CCCN3C)nc3c(F)c(-c4cc(O)cc5ccccc45)c(CCC#N)cc3c2n1C1C2CNC1C2 (single isomer, unassigned) [Example 29] | ≤ 0.1 | ≤ 0.1 | – | – |
| C=CC(=O)N1CC[C@H](n2ncc3c(OC[C@@H]4CCCN4C)nc4c(F)c(-c5cccc(C)c5C(F)(F)F)c(Cl)cc4c32)C[C@H]1CC#N [Example 28, 2-((2S,4S)-1-acryloyl-4-(8-chloro-6-fluoro-7-(3-methyl-2-(trifluoromethyl)phenyl)-4-(((S)-1-methylpyrrolidin-2-yl)methoxy)-1H-pyrazolo[4,3-c]quinolin-1-yl)piperidin-2-yl)acetonitrile] | – | – | ≤ 0.1 | ≤ 0.1 |
| CN(C)C(=O)CCc1cc2c(OC[C@@H]3CCCN3C)nc3c(F)c(-c4cc(O)cc5ccccc45)c(CCC#N)cc3c2n1C1C2CNC1C2 (stereo partly drawn) [Example 30, 3-(1-(2-azabicyclo[2.1.1]hexan-5-yl)-8-(2-cyanoethyl)-6-fluoro-7-(3-hydroxynaphthalen-1-yl)-4-(((S)-1-methylpyrrolidin-2-yl)methoxy)-1H-pyrrolo[3,2-c]quinolin-2-yl)-N,N-dimethylpropanamide] | ≤ 0.1 | ≤ 0.1 | – | – |
| CCCc1cc2c(OC[C@@H]3CCCN3C)nc3c(F)c(-c4cc(O)cc5ccccc45)c(CCC#N)cc3c2n1C1C2CNC1C2 (stereo partly drawn) [Example 31, 3-(1-(2-azabicyclo[2.1.1]hexan-5-yl)-6-fluoro-7-(3-hydroxynaphthalen-1-yl)-4-(((S)-1-methylpyrrolidin-2-yl)methoxy)-2-propyl-1H-pyrrolo[3,2-c]quinolin-8-yl)propanenitrile] | ≤ 0.1 | ≤ 0.1 | – | – |
| CN1CCC[C@H]1COc1nc2c(F)c(-c3cc(O)cc4ccccc34)c(CCC#N)cc2c2c1cc(-c1cnn(C)c1)n2C1C2CNC1C2 (stereo partly drawn) [Example 32, 3-(1-(2-azabicyclo[2.1.1]hexan-5-y1)-6-fluoro-7-(3-hydroxynaphthalen-1-y1)-2-(1-methyl-1H-pyrazol-4-y1)-4-(((S)-1-methylpyrrolidin-2-yl)methoxy)-1H-pyrrolo[3,2-c]quinolin-8-yl)propanenitrile] | ≤ 0.1 | ≤ 0.1 | – | – |
| CN1CCC[C@H]1COc1nc2c(F)c(-c3cc(O)cc4ccccc34)c(CCC#N)cc2c2c1ccn2C1C2CNC1C2 (stereo partly drawn) [Example 33, 3-(1-(2-azabicyclo[2.1.1]hexan-5-yl)-6-fluoro-7-(3-hydroxynaphthalen-1-yl)-4-(((S)-1-methylpyrrolidin-2-yl)methoxy)-1H-pyrrolo[3,2-c]quinolin-8-yl)propanenitrile] | 0.1 to 1 | ≤ 0.1 | – | – |
| C[C@H](Oc1nc2c(F)c(-c3cccc4cccc(Cl)c34)c(Cl)cc2c2c1cnn2[C@H]1CCN(C(=O)/C=C/CF)[C@H](CC#N)C1)[C@@H]1CCCN1C [Example 85, 2-((2S,4S)-4-(8-chloro-7-(8-chloronaphthalen-1-yl)-6-fluoro-4-((S)-1-((S)-1-methylpyrrolidin-2-yl)ethoxy)-1H-pyrazolo[4,3-c]quinolin-1-yl)-1-((E)-4-fluorobut-2-enoyl)piperidin-2-yl)acetonitrile] | – | – | ≤ 0.1 | ≤ 0.1 |
| C=C(F)C(=O)N1CC[C@H](n2ncc3c(O[C@@H](C)[C@@H]4CCCN4C)nc4c(F)c(-c5cccc6cccc(Cl)c56)c(Cl)cc4c32)C[C@H]1CC#N [Example 86, 2-((2S,4S)-4-(8-chloro-7-(8-chloronaphthalen-1-yl)-6-fluoro-4-((S)-1-((S)-1-methylpyrrolidin-2-yl)ethoxy)-1H-pyrazolo[4,3-c]quinolin-1-yl)-1-(2-fluoroacryloyl)piperidin-2-yl)acetonitrile] | – | – | ≤ 0.1 | ≤ 0.1 |
| CC#CC(=O)N1CC[C@H](n2ncc3c(O[C@@H](C)[C@@H]4CCCN4C)nc4c(F)c(-c5cccc6cccc(Cl)c56)c(Cl)cc4c32)C[C@H]1CC#N [Example 87, 2-((2S,4S)-1-(but-2-ynoyl)-4-(8-chloro-7-(8-chloronaphthalen-1-yl)-6-fluoro-4-((S)-1-((S)-1-methylpyrrolidin-2-yl)ethoxy)-1H-pyrazolo[4,3-c]quinolin-1-yl)piperidin-2-yl)acetonitrile] | – | – | ≤ 0.1 | ≤ 0.1 |
| COC/C=C/C(=O)N1CC[C@H](n2ncc3c(O[C@@H](C)[C@@H]4CCCN4C)nc4c(F)c(-c5cccc6cccc(Cl)c56)c(Cl)cc4c32)C[C@H]1CC#N [Example 88, 2-((2S,4S)-4-(8-chloro-7-(8-chloronaphthalen-1-yl)-6-fluoro-4-((S)-1-((S)-1-methylpyrrolidin-2-yl)ethoxy)-1H-pyrazolo[4,3-c]quinolin-1-yl)-1-((E)-4-methoxybut-2-enoyl)piperidin-2-yl)acetonitrile] | – | – | ≤ 0.1 | ≤ 0.1 |
